Data as given in ChEMBL document CHEMBL3885861, “Open TG-GATES”.

Species on record: Rattus norvegicus
Experiment: Open TG-GATES - Regimen: Daily Repeat
Assay type: toxicity, organism-based, Sprague-Dawley
Set-up: regimen Daily Repeat, gender Male, age 6 weeks
Details: in vivo, po, route gavage; for APTT / Bas / Eos / Fbg / Hb / Ht / Lym / MCH / MCHC / MCV / Mono / Neu / PT / Plat / RBC / Ret / WBC: tissue Blood; for KIDNEY_L / KIDNEY_R / KIDNEY_TOTAL: tissue Kidney; for LIVER: tissue Liver; for A/G / ALP / ALT / AST / BUN / CRE / Ca / Cl / DBIL / GLC / IP / K / LDH / Na / PL / RALB / TBIL / TC / TG / TP / gamma-GTP: tissue Plasma
[1] = 30 mg/kg, 72 h, dose level Middle, time 3 day
[2] = 30 mg/kg, […], dose level Middle, time 7 day
[3] = 30 mg/kg, […], dose level Middle, time 14 day
[4] = 30 mg/kg, […], dose level Middle, time 28 day
[5] = 100 mg/kg, 72 h, dose level High, time 3 day
[6] = 100 mg/kg, […], dose level High, time 7 day
[7] = 100 mg/kg, […], dose level High, time 14 day
[8] = 100 mg/kg, […], dose level High, time 28 day

CCC1(c2ccccc2)C(=O)NC(=O)NC1=O [PHENOBARBITAL]
TERMINAL_BW [1]: 222.1 g
APTT [1]: 15.2 s
Bas [1]: 0%
Eos [1]: 0.6%
Fbg [1]: 228.4 mg/dL
Hb [1]: 13.5 g/dL
Ht [1]: 40.1%
Lym [1]: 81.2%
MCH [1]: 21.8 pg
MCHC [1]: 33.7%
MCV [1]: 64.9 fL
Mono [1]: 6.4%
Neu [1]: 12%
PT [1]: 11.2 s
Plat [1]: 118.8 x10_4/uL
RBC [1]: 618 x10_4/ul
Ret [1]: 7.6%
WBC [1]: 95.1 x10_2/uL
KIDNEY_L [1]: 0.9 g
KIDNEY_R [1]: 0.9 g
KIDNEY_TOTAL [1]: 1.9 g
LIVER [1]: 12.5 g
A/G [1]: 1.6
ALP [1]: 932 IU/L
ALT [1]: 36.6 IU/L
AST [1]: 63.2 IU/L
BUN [1]: 17.2 mg/dL
CRE [1]: 0.6 mg/dL
Ca [1]: 11.2 mg/dL
Cl [1]: 105.2 meq/L
DBIL [1]: 0.026 mg/dL
GLC [1]: 201 mg/dL
IP [1]: 9.2 mg/dL
K [1]: 4.5 meq/L
LDH [1]: 128.8 IU/L
Na [1]: 139.8 meq/L
PL [1]: 168.6 mg/dL
RALB [1]: 3.6 g/dL
TBIL [1]: 0.4 mg/dL
TC [1]: 92 mg/dL
TG [1]: 116.4 mg/dL
TP [1]: 5.9 g/dL
gamma-GTP [1]: 1.2 IU/L
TERMINAL_BW [2]: 261.6 g
TERMINAL_BW [3]: 299.2 g
TERMINAL_BW [4]: 388.6 g
APTT [2]: 15.6 s
Bas [2]: 0%
Eos [2]: 0.2%
Fbg [2]: 242.4 mg/dL
Hb [2]: 13.6 g/dL
Ht [2]: 40.8%
Lym [2]: 80.8%
MCH [2]: 21.6 pg
MCHC [2]: 33.3%
MCV [2]: 64.9 fL
Mono [2]: 6.6%
Neu [2]: 12%
PT [2]: 11.6 s
Plat [2]: 120.5 x10_4/uL
RBC [2]: 629.6 x10_4/ul
Ret [2]: 6.9%
WBC [2]: 121 x10_2/uL
APTT [3]: 17.6 s
Bas [3]: 0%
Eos [3]: 0%
Fbg [3]: 229 mg/dL
Hb [3]: 14.6 g/dL
Ht [3]: 44.3%
Lym [3]: 88%
MCH [3]: 20.3 pg
MCHC [3]: 33%
MCV [3]: 61.5 fL
Mono [3]: 3%
Neu [3]: 8.4%
PT [3]: 11.6 s
Plat [3]: 114.8 x10_4/uL
RBC [3]: 720.6 x10_4/ul
Ret [3]: 4.8%
WBC [3]: 130.2 x10_2/uL
APTT [4]: 18.2 s
Bas [4]: 0%
Eos [4]: 1%
Fbg [4]: 215 mg/dL
Hb [4]: 15.1 g/dL
Ht [4]: 45%
Lym [4]: 82.6%
MCH [4]: 19.5 pg
MCHC [4]: 33.6%
MCV [4]: 58 fL
Mono [4]: 5.2%
Neu [4]: 11.6%
PT [4]: 12.2 s
Plat [4]: 103 x10_4/uL
RBC [4]: 777.2 x10_4/ul
Ret [4]: 3%
WBC [4]: 150 x10_2/uL
KIDNEY_L [2]: 1.1 g
KIDNEY_R [2]: 1.1 g
KIDNEY_TOTAL [2]: 2.2 g
KIDNEY_L [3]: 1.2 g
KIDNEY_R [3]: 1.2 g
KIDNEY_TOTAL [3]: 2.3 g
KIDNEY_L [4]: 1.3 g
KIDNEY_R [4]: 1.3 g
KIDNEY_TOTAL [4]: 2.7 g
LIVER [2]: 14.7 g
LIVER [3]: 15.9 g
LIVER [4]: 18 g
A/G [2]: 1.5
ALP [2]: 888 IU/L
ALT [2]: 29.8 IU/L
AST [2]: 58.4 IU/L
BUN [2]: 18.8 mg/dL
CRE [2]: 0.6 mg/dL
Ca [2]: 11 mg/dL
Cl [2]: 106.4 meq/L
DBIL [2]: 0.042 mg/dL
GLC [2]: 204 mg/dL
IP [2]: 8.8 mg/dL
K [2]: 4.6 meq/L
LDH [2]: 95 IU/L
Na [2]: 140.8 meq/L
PL [2]: 157 mg/dL
RALB [2]: 3.6 g/dL
TBIL [2]: 0.4 mg/dL
TC [2]: 85 mg/dL
TG [2]: 115.2 mg/dL
TP [2]: 6 g/dL
gamma-GTP [2]: 1.2 IU/L
A/G [3]: 1.4
ALP [3]: 718.2 IU/L
ALT [3]: 27.6 IU/L
AST [3]: 61.8 IU/L
BUN [3]: 19.6 mg/dL
CRE [3]: 0.6 mg/dL
Ca [3]: 10.9 mg/dL
Cl [3]: 107 meq/L
DBIL [3]: 0.008 mg/dL
GLC [3]: 205.8 mg/dL
IP [3]: 8.5 mg/dL
K [3]: 4.2 meq/L
LDH [3]: 84.6 IU/L
Na [3]: 142 meq/L
PL [3]: 148.4 mg/dL
RALB [3]: 3.8 g/dL
TBIL [3]: 0.3 mg/dL
TC [3]: 79.2 mg/dL
TG [3]: 116.2 mg/dL
TP [3]: 6.5 g/dL
gamma-GTP [3]: 1 IU/L
A/G [4]: 1.5
ALP [4]: 631.8 IU/L
ALT [4]: 32.2 IU/L
AST [4]: 58.6 IU/L
BUN [4]: 20.6 mg/dL
CRE [4]: 0.4 mg/dL
Ca [4]: 10.4 mg/dL
Cl [4]: 108 meq/L
DBIL [4]: 0.03 mg/dL
GLC [4]: 194.4 mg/dL
IP [4]: 7.5 mg/dL
K [4]: 4.8 meq/L
LDH [4]: 70 IU/L
Na [4]: 139.6 meq/L
PL [4]: 143.4 mg/dL
RALB [4]: 3.8 g/dL
TBIL [4]: 0.4 mg/dL
TC [4]: 76.8 mg/dL
TG [4]: 88.8 mg/dL
TP [4]: 6.3 g/dL
gamma-GTP [4]: 2.6 IU/L
TERMINAL_BW [5]: 223.9 g
APTT [5]: 15.7 s
Bas [5]: 0%
Eos [5]: 0.4%
Fbg [5]: 214.6 mg/dL
Hb [5]: 13.6 g/dL
Ht [5]: 40.7%
Lym [5]: 82.8%
MCH [5]: 21.9 pg
MCHC [5]: 33.3%
MCV [5]: 65.9 fL
Mono [5]: 6.8%
Neu [5]: 10%
PT [5]: 11.4 s
Plat [5]: 115.9 x10_4/uL
RBC [5]: 617.6 x10_4/ul
Ret [5]: 6.6%
WBC [5]: 159.6 x10_2/uL
KIDNEY_L [5]: 1 g
KIDNEY_R [5]: 1 g
KIDNEY_TOTAL [5]: 2 g
LIVER [5]: 14.1 g
A/G [5]: 1.6
ALP [5]: 945.6 IU/L
ALT [5]: 37 IU/L
AST [5]: 60.6 IU/L
BUN [5]: 14.2 mg/dL
CRE [5]: 0.5 mg/dL
Ca [5]: 10.8 mg/dL
Cl [5]: 104.6 meq/L
DBIL [5]: 0.028 mg/dL
GLC [5]: 188.6 mg/dL
IP [5]: 8 mg/dL
K [5]: 5.1 meq/L
LDH [5]: 112.4 IU/L
Na [5]: 137.4 meq/L
PL [5]: 157.2 mg/dL
RALB [5]: 3.6 g/dL
TBIL [5]: 0.4 mg/dL
TC [5]: 82.2 mg/dL
TG [5]: 118.6 mg/dL
TP [5]: 5.9 g/dL
gamma-GTP [5]: 1 IU/L
TERMINAL_BW [6]: 257.9 g
TERMINAL_BW [7]: 304.3 g
TERMINAL_BW [8]: 378.9 g
APTT [6]: 16.7 s
Bas [6]: 0%
Eos [6]: 1%
Fbg [6]: 241.6 mg/dL
Hb [6]: 13.8 g/dL
Ht [6]: 41.4%
Lym [6]: 78.8%
MCH [6]: 22 pg
MCHC [6]: 33.4%
MCV [6]: 66 fL
Mono [6]: 7.4%
Neu [6]: 13%
PT [6]: 11.5 s
Plat [6]: 116.8 x10_4/uL
RBC [6]: 629.6 x10_4/ul
Ret [6]: 7.5%
WBC [6]: 104.3 x10_2/uL
APTT [7]: 17.5 s
Bas [7]: 0%
Eos [7]: 0%
Fbg [7]: 228.6 mg/dL
Hb [7]: 14.7 g/dL
Ht [7]: 43.9%
Lym [7]: 86%
MCH [7]: 20.7 pg
MCHC [7]: 33.4%
MCV [7]: 61.9 fL
Mono [7]: 4.2%
Neu [7]: 9.4%
PT [7]: 11.5 s
Plat [7]: 115.5 x10_4/uL
RBC [7]: 709.4 x10_4/ul
Ret [7]: 5%
WBC [7]: 166 x10_2/uL
APTT [8]: 19.1 s
Bas [8]: 0%
Eos [8]: 0.4%
Fbg [8]: 226.8 mg/dL
Hb [8]: 15.3 g/dL
Ht [8]: 46.1%
Lym [8]: 87.8%
MCH [8]: 19.8 pg
MCHC [8]: 33.2%
MCV [8]: 59.4 fL
Mono [8]: 2.2%
Neu [8]: 9.6%
PT [8]: 12.4 s
Plat [8]: 105.1 x10_4/uL
RBC [8]: 775.6 x10_4/ul
Ret [8]: 3%
WBC [8]: 170.6 x10_2/uL
KIDNEY_L [6]: 1.1 g
KIDNEY_R [6]: 1.1 g
KIDNEY_TOTAL [6]: 2.1 g
KIDNEY_L [7]: 1.2 g
KIDNEY_R [7]: 1.2 g
KIDNEY_TOTAL [7]: 2.4 g
KIDNEY_L [8]: 1.4 g
KIDNEY_R [8]: 1.4 g
KIDNEY_TOTAL [8]: 2.8 g
LIVER [6]: 17.1 g
LIVER [7]: 18.1 g
LIVER [8]: 20.8 g
A/G [6]: 1.5
ALP [6]: 717.2 IU/L
ALT [6]: 32.6 IU/L
AST [6]: 58.8 IU/L
BUN [6]: 18 mg/dL
CRE [6]: 0.6 mg/dL
Ca [6]: 11 mg/dL
Cl [6]: 106 meq/L
DBIL [6]: 0.054 mg/dL
GLC [6]: 199 mg/dL
IP [6]: 8.1 mg/dL
K [6]: 4.6 meq/L
LDH [6]: 145 IU/L
Na [6]: 140.4 meq/L
PL [6]: 160.2 mg/dL
RALB [6]: 3.8 g/dL
TBIL [6]: 0.4 mg/dL
TC [6]: 88.4 mg/dL
TG [6]: 71.6 mg/dL
TP [6]: 6.2 g/dL
gamma-GTP [6]: 1.6 IU/L
A/G [7]: 1.4
ALP [7]: 757.4 IU/L
ALT [7]: 32 IU/L
AST [7]: 65.4 IU/L
BUN [7]: 19.4 mg/dL
CRE [7]: 0.6 mg/dL
Ca [7]: 10.7 mg/dL
Cl [7]: 107.2 meq/L
DBIL [7]: 0.004 mg/dL
GLC [7]: 180 mg/dL
IP [7]: 8.4 mg/dL
K [7]: 4.2 meq/L
LDH [7]: 151.2 IU/L
Na [7]: 141.4 meq/L
PL [7]: 156 mg/dL
RALB [7]: 3.9 g/dL
TBIL [7]: 0.4 mg/dL
TC [7]: 91.4 mg/dL
TG [7]: 60.4 mg/dL
TP [7]: 6.5 g/dL
gamma-GTP [7]: 1.4 IU/L
A/G [8]: 1.4
ALP [8]: 536 IU/L
ALT [8]: 34.6 IU/L
AST [8]: 64.6 IU/L
BUN [8]: 21.2 mg/dL
CRE [8]: 0.4 mg/dL
Ca [8]: 10.7 mg/dL
Cl [8]: 106.2 meq/L
DBIL [8]: 0.014 mg/dL
GLC [8]: 180 mg/dL
IP [8]: 7.7 mg/dL
K [8]: 4.9 meq/L
LDH [8]: 138.8 IU/L
Na [8]: 141.6 meq/L
PL [8]: 144.8 mg/dL
RALB [8]: 4 g/dL
TBIL [8]: 0.4 mg/dL
TC [8]: 79.6 mg/dL
TG [8]: 76.2 mg/dL
TP [8]: 6.8 g/dL
gamma-GTP [8]: 2 IU/L
